The record followed here is US6683107B2, “Furans, benzofurans, and thiophenes useful in the treatment of insulin resistance and hyperglycemia” (Wyeth, priority 1998, dated 2004).

The structures appear in SMILES notation. pIC50: −log10 of the molar value.

Data set [1] deals with T1, human recombinant PTP1B (hPTP1B) (Homo sapiens, UniProt P18031).
T1 construct: made in house
T1 sequence (P18031 1-435): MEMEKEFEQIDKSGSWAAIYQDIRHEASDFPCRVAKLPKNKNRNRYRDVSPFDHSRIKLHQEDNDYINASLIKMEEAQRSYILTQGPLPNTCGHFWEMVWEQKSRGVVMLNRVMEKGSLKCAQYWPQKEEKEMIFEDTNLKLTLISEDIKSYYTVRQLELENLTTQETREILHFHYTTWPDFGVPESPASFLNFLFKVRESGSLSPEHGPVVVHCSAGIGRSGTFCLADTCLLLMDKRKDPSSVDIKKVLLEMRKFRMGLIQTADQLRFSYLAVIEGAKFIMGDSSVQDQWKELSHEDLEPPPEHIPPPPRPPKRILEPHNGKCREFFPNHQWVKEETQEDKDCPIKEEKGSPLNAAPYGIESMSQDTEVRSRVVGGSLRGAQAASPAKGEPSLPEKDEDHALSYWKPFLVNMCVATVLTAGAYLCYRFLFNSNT
Put plainly: Inhibition of tri-phosphorylated insulin receptor dodecaphosphopeptide dephosphorylation by hPTP1B (malachite green phosphate detection). Type of data set: biochemical. Conditions: recombinant PTP1B, insulin receptor 1142-1153 triphosphopeptide substrate, 37° C., 30 min, pH 7.4.

By pIC50 is commonly meant the IC50 on a negative log10 scale, so that one unit is a factor of ten. In general, melting point refers to the temperature, or range, at which the solid turns liquid. In turn, `CCCCc1oc2ccccc2c1Cc1ccc(OS(=O)(=O)c2ccc(C(=O)O)c(O)c2)cc1` [Example 28, 4-[4-(2-Butyl-benzofuran-3-ylmethyl)-phenoxysulfonyl]-2-hydroxy-benzoic acid] had a melting point of 135 to 138 °C. Further, the pIC50 in data set [1] was 6.24.

In turn, `Cc1oc(Cc2ccc(Br)cc2)c(C(=O)c2ccc(OS(=O)(=O)c3ccc(C(=O)O)c(O)c3)c(C3CCCC3)c2)c1C` [Example 13, 4-{4-[2-(4-Bromo-benzyl)4,5-dimethyl-furan-3-carbonyl]-2-cyclopentyl-phenoxysulfonyl}-2-hydroxy-benzoic acid] came in with a melting point of 188 to 192 °C. Moreover, the negative logarithm of the IC50 (pIC50) in data set [1] was 6.57.

`O=C(O)c1ccc(S(=O)(=O)Oc2ccc(CCc3c(Cc4ccccc4)sc4ccccc34)cc2)cc1O` [Example 12, 4-{4-[2-(2-Benzyl-benzo[b]thiophen-3-yl)thyl]-phenoxysulfonyl}-2-hydroxy-benzoic acid] yielded a melting point of 57 to 59 °C. Also, the pIC50 in data set [1] is 6.74.

The compound `CCc1oc2ccccc2c1C(=O)c1cc(C)c(OS(=O)(=O)c2ccc(C(=O)O)c(O)c2)c(C)c1` [Example 3, 4-[4-(2-Ethyl-benzofuran-3-carbonyl)-2,6-dimethyl-phenoxysulfonyl]-2-hydroxy-benzoic acid] displayed a melting point of 166 to 167 °C. In data set [1], the negative-log IC50 (pIC50) is 6.38.
